Experimental data taken from patent US7285548B2, “Urea substituted benzothiazoles” (Hoffmann-La Roche Inc., priority 2003, dated 2007).

What was measured:
[1] = target: T1, human adenosine A2A receptor (Homo sapiens, UniProt P29274); test: [3H]-SCH-58261 binding assay, human adenosine A2A receptor (CHO cell membranes, SPA); conditions: recombinant human A2A receptor in CHO membranes; [3H]-SCH-58261 1 nM; Ki by Cheng-Prussoff equation; read-out: hA2 (pKi) (converted)
T1 construct: expressed in transfected cells; host or cells: CHO cells, semliki forest virus expression system; membrane preparation
T1 sequence (P29274 whole entry): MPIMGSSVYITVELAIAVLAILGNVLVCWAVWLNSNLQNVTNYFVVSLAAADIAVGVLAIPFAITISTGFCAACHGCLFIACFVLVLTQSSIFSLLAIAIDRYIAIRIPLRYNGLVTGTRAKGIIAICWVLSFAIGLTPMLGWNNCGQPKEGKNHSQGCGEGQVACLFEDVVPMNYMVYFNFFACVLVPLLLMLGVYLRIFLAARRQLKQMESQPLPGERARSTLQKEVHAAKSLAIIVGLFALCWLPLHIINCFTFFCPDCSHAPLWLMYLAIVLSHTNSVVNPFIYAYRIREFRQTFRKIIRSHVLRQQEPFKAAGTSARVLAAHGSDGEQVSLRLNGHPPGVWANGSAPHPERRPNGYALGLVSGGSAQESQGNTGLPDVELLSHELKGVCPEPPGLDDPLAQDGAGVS
Method: Human Adenosine A2A Receptor
The human adenosine A2A receptor was recombinantly expressed in Chinese hamster ovary (CHO) cells using the semliki forest virus expression system. Cells were harvested, washed twice by centrifugation, homogenized and again washed by centrifugation. The final washed membrane pellet was suspended in a Tris (50 mM) buffer containing 120 mM NaCl, 5 mM KCl, 2 mM CaCl2 and 10 mM MgCl2 (pH 7.4) (buffer A). The [^3H]-SCH-58261 (Dionisotti et al., 1997, Br J Pharmacol 121, 353; 1nM) binding assay was carried out in 96-well plates in the presence of 2.5 μg of membrane protein, 0.5 mg of Ysi-poly-l-lysine SPA beads and 0.1 U adenosine deaminase in a final volume of 200 μl of buffer A. Non-specific binding was defined using xanthine amine congener (XAC; 2 μM). Compounds were tested at 10 concentrations from 10 μM-0.3 nM. All assays were conducted in duplicate and repeated at least two times. Assay plates were incubated for 1 hour at room temperature before centrifugation and then bound ligand determined using a Packard Topcount scintillation counter. IC50 values were calculated using a non-linear curve fitting program and Ki values calculated using the Cheng-Prussoff equation.

Compound | Ki [1] [nM] | melting point
COc1ccc(N2CCOCC2)c2sc(NC(=O)N(C)C3CCC(CO)C3)nc12 (racemic) [Example 5, (rac),(cis)-1-(3-Hydroxymethyl-cyclopentyl)-3-(4-methoxy-7-morpholin-4-yl-benzothiazol-2-yl)-1-methyl-urea] | 3.98 | 115 to 118 °C
COc1ccc(N2CCOCC2)c2sc(NC(=O)N(C)C3CC4CCC3C4)nc12 (racemic) [Example 6, 1-(endo)-(rac)-Bicyclo[2.2.1]hept-2-yl-3-(4-methoxy-7-morpholin-4-yl-benzothiazol-2-yl)-1-methyl-urea] | 7.94 | 199 to 202 °C
COc1ccc(N2CCOCC2)c2sc(NC(=O)N(C)C3CC4CCC3O4)nc12 (racemic) [Example 9, (rac)-(endo)-3-(4-Methoxy-7-morpholin-4-yl-benzothiazol-2-yl)-1-methyl-1-(7-oxa-bicyclo[2.2.1]hept-2-yl)-urea] | 12.6 | 191 to 193 °C
COc1ccc(N2CCOCC2)c2sc(NC(=O)N(C)C3CC4CC3CC4O)nc12 (racemic) [Example 10, (rac)-1-(5-exo-Hydroxy-bicyclo[2.2.1]hept-2-exo-yl)-3-(4-methoxy-7-morpholin-4-yl-benzothiazol-2-yl)-1-methyl-urea] | 7.94 | 189 °C
COc1ccc(N2CCOCC2)c2sc(NC(=O)N(C)C3CC4CCC3O4)nc12 (single isomer, unassigned) [Example 7, (exo)-(+)-3-(4-Methoxy-7-morpholin-4-yl-benzothiazol-2-yl)-1-methyl-1-(7-oxa-bicyclo[2.2.1]hept-2-yl)-urea] | 3.16 | 202 to 204 °C
COc1ccc(N2CCOCC2)c2sc(NC(=O)N(C)C3CC4CCC3O4)nc12 (single isomer, unassigned) [Example 8, (exo)-(−)-3-(4-Methoxy-7-morpholin-4-yl-benzothiazol-2-yl)-1-methyl-1-(7-oxa-bicyclo[2.2.1]hept-2-yl)-urea] | 10 | 202 to 203 °C
COc1ccc(N2CCOCC2)c2sc(NC(=O)N(C)C3CCC(C(F)(F)F)CC3)nc12 (stereo not drawn) [Example 1, 3-(4-Methoxy-7-morpholin-4-yl-benzothiazol-2-yl)-1-methyl-1-(4-trifluoromethyl-cyclohexyl)-urea] | 20 | 157 to 167 °C
COc1ccc(N2CCOCC2)c2sc(NC(=O)N(C)[C@H]3CC[C@H](C)CC3)nc12 [Example 2, (trans)-3-(4-Methoxy-7-morpholin-4-yl-benzothiazol-2-yl)-1-methyl-1-(4-methyl-cyclohexyl)-urea] | 15.8 | 171 to 173 °C
COc1ccc(N2CCOCC2)c2sc(NC(=O)N(C)[C@H]3CC[C@H](CO)CC3)nc12 [Example 3, (trans)-1-(4-Hydroxymethyl-cyclohexyl)-3-(4-methoxy-7-morpholin-4-yl-benzothiazol-2-yl)-1-methyl-urea] | 15.8 | 190 °C (dec.)
COC[C@H]1CC[C@H](N(C)C(=O)Nc2nc3c(OC)ccc(N4CCOCC4)c3s2)CC1 [Example 4, (trans)-1-(4-Methoxymethyl-cyclohexyl)-3-(4-methoxy-7-morpholin-4-yl-benzothiazol-2-yl)-1-methyl-urea] | 20 | 141 to 143 °C
COc1ccc(N2CCOCC2)c2sc(NC(=O)N(C)C34CC5CC(CC(C5)C3)C4)nc12 [Example 12, 1-Adamantan-1-yl-3-(4-methoxy-7-morpholin-4-yl-benzothiazol-2-yl)-1-methyl-urea] | 50.1 | 165 to 176 °C
COc1ccc(N2CCOCC2)c2sc(NC(=O)N3CC4CCC(C3)O4)nc12 [Example 13, 8-Oxa-3-aza-bicyclo[3.2.1]octane-3-carboxylic acid (4-methoxy-7-morpholin-4-yl-benzothiazol-2-yl)-amide] | 10 | 229 to 231 °C
